Results reported in ChEMBL document CHEMBL1201862, “PubChem BioAssay data set” (2004).
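How tested: cells in 96-well plates exposed to compound for 48 hours at five concentrations. GI50 marks 50% less growth.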 Activity calls are given as the source filed them. Cut-off read from the data, not from the text of the source: active = GI50 up to about 1.1 µM and inactive = higher.

Legend:
Assay in all cases: growth of human tumour cells (NCI), 48 h
ACHN = test system: ACHN
CAKI-1 = test system: CAKI-1
CCRF-CEM = test system: CCRF-CEM
HCT-116 = test system: HCT-116
HOP-92 = test system: HOP-92
K562 = test system: K562
M14 = test system: M14
MOLT-4 = test system: MOLT-4
NCI-H226 = test system: NCI-H226
OVCAR-4 = test system: OVCAR-4
SK-MEL-5 = test system: SK-MEL-5
SN12C = test system: SN12C
SR = test system: SR
U-251 = test system: U-251
UACC-62 = test system: UACC-62
HL-60 = test system: HL-60
RXF 393 = test system: RXF 393
SF-295 = test system: SF-295

Measured: GI50

CCOC(=O)C(=O)CC1=Nc2ccccc2SC(c2cccc(C)c2)C1 (configuration not stated)
inactive: ACHN 16.6 µM | CAKI-1 21.9 µM | CCRF-CEM 20.6 µM | HCT-116 14.7 µM | HOP-92 16 µM | K562 19.7 µM | M14 18.6 µM | MOLT-4 17.3 µM | NCI-H226 16.9 µM | OVCAR-4 18 µM | SK-MEL-5 18.2 µM | SN12C 17.1 µM | SR 22.2 µM | U-251 17.1 µM | UACC-62 16.9 µM

O=C(O)c1ccc([C@@H]2C(=O)N(O)[C@@H]3C=CC[C@@H]32)cc1
inactive: CAKI-1 > 100 µM | CCRF-CEM > 100 µM | HL-60 > 100 µM | K562 > 100 µM | M14 > 100 µM | MOLT-4 > 100 µM | NCI-H226 > 100 µM | RXF 393 > 100 µM | SF-295 > 100 µM | SK-MEL-5 > 100 µM | SN12C > 100 µM | UACC-62 > 100 µM

COc1cc(C2C(C(=O)Nc3ccc(Cl)c(Cl)c3)=C(C)NC(C)=C2C(=O)Nc2ccc(Cl)c(Cl)c2)ccc1O
inactive: ACHN 10.8 µM | CAKI-1 14 µM | CCRF-CEM 3.26 µM | HL-60 4.38 µM | HOP-92 2.6 µM | K562 6.68 µM | M14 12.6 µM | MOLT-4 4.31 µM | NCI-H226 16.7 µM | OVCAR-4 5.3 µM | RXF 393 2.64 µM | SF-295 18.4 µM | SK-MEL-5 12.2 µM | SN12C 12.3 µM | U-251 13.9 µM

COc1cc2c(cc1OC)C(C#N)N(C(=O)c1ccccc1)C=C2OC(=O)c1ccccc1 (configuration not stated)
inactive: ACHN 20 µM | CCRF-CEM 36.6 µM | HL-60 > 100 µM | HOP-92 27 µM | K562 32.7 µM | M14 37.8 µM | MOLT-4 77.8 µM | NCI-H226 23.2 µM | SF-295 22.5 µM | SK-MEL-5 23.9 µM | SN12C 38.5 µM | SR 61.5 µM | U-251 24.7 µM | UACC-62 20.5 µM

CCOC(=O)C(Cc1ccccc1)NC(=O)c1ccc(/N=N/N(C)C)cc1 (configuration not stated)
inactive: ACHN > 100 µM | CAKI-1 > 100 µM | CCRF-CEM > 100 µM | HCT-116 > 100 µM | HL-60 > 100 µM | K562 > 100 µM | M14 > 100 µM | MOLT-4 > 100 µM | NCI-H226 > 100 µM | OVCAR-4 > 100 µM | SF-295 > 100 µM | SK-MEL-5 > 100 µM | SN12C > 100 µM | SR > 100 µM | U-251 > 100 µM | UACC-62 > 100 µM

C/C=C(/CCCCNCCCC)[Si](C)(C)C
inactive: ACHN 14 µM | CCRF-CEM 8.26 µM | HCT-116 12.4 µM | HL-60 6.64 µM | HOP-92 6.38 µM | K562 17.6 µM | M14 14.4 µM | MOLT-4 11.4 µM | RXF 393 8.65 µM | SF-295 15.8 µM | SK-MEL-5 13.3 µM | SN12C 16.2 µM | SR 13.4 µM | U-251 13.5 µM | UACC-62 17.6 µM

CN1c2ccccc2N(C(=O)c2ccccc2)C(CC(=O)O)c2cccn21 (configuration not stated)
inactive: ACHN > 100 µM | CAKI-1 > 100 µM | CCRF-CEM > 100 µM | HL-60 > 100 µM | HOP-92 19.4 µM | K562 > 100 µM | M14 > 100 µM | MOLT-4 > 100 µM | OVCAR-4 > 100 µM | RXF 393 43.1 µM | SF-295 > 100 µM | SK-MEL-5 > 100 µM | SN12C > 100 µM | U-251 > 100 µM | UACC-62 55.3 µM
